From patent EP4417602A1, “SUBSTITUTED PYRAZOLE CARBOXAMIDES, SALTS THEREOF AND THEIR USE AS HERBICIDALLY ACTIVE SUBSTANCES” (Bayer AG, priority 2023, dated 2024)

Columns and labels:
SETVI [1] = assay: B. Herbicidal post-emergence action on harmful plants (Tables B); format: in vivo, Setaria viridis; settings: application rate 1280 g/ha; Table B5
Outline: (§1)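 Activity was scored visually as % damage (100% = dead, 0% = like untreated) about 3 weeks after treatment. Plants at the one-leaf stage, 2-3 weeks old, were sprayed with WP/EC formulations plus 0.5% additive (600 L/ha water, up to 1280 g/ha). Plants were grown in sandy loam in a greenhouse.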

AMARE [2] = assay: as above; format: in vivo, Amaranthus retroflexus; settings: application rate 1280 g/ha; Table B8
Outline: as §1

ECHCG = assay: A. Herbicidal pre-emergence action on harmful plants (Tables A); format: in vivo, Echinochloa crus-galli; settings: visual grading after ca. 3 weeks vs untreated controls, 100% = plants have died off, 0% = as control plants
Outline: (§2)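 Greenhouse pre-emergence test: compound applied to the soil surface at 1280 g/ha or below, and herbicidal effect rated visually at ca. 3 weeks on a 0–100% scale against untreated plants.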

ABUTH = assay: as above; format: in vivo, Abutilon theophrasti; settings: application rate 1280 g/ha; visual grading after ca. 3 weeks vs untreated controls; 100% = plants have died off, 0% = as control plants
Source text: Seeds of mono- and dicotyledonous weed plants were sown in plastic pots (double sowings with one species of mono- and one species of dicotyledonous weed plants per pot), in sandy loam, and covered with soil. The compounds according to the invention, formulated in the form of wettable powders (WP) or as emulsifiable concentrates (EC), were applied to the surface of the covering soil as aqueous suspension or emulsion, with the addition of 0.5% of an additive, at an application rate of 6001 of water per hectare (converted). Following treatment, the pots were placed in a greenhouse and kept under optimum growth conditions for the test plants. The visual grading of the damage to the test plants was carried out after ca. 3 weeks in comparison to untreated controls (herbicidal effect in percent (%): 100% effect = plants have died off, 0% effect = as control plants). Tables A1 to A12, below, show the effects of selected compounds of the general formula (I) according to table 1 on various harmful plants and an application rate corresponding to 1280 g/ha or below obtained by the experimental procedure mentioned above. Table A1: pre-emergence activity at 1280g/ha against ABUTH in %

AMARE [3] = assay: as above; format: in vivo, Amaranthus retroflexus; settings: application rate 1280 g/ha; visual grading after ca. 3 weeks vs untreated controls; 100% = plants have died off, 0% = as control plants
Outline: as §2

SETVI [4] = assay: as above; format: in vivo, Setaria viridis; settings: visual grading after ca. 3 weeks vs untreated controls, 100% = plants have died off, 0% = as control plants
Outline: as §2

KCHSC [5] = assay: B. Herbicidal post-emergence action on harmful plants (Tables B); format: in vivo, Kochia scoparia; settings: application rate 1280 g/ha; Table B10a
Experimental: Seeds of mono- and dicotyledonous weed plants were placed in plastic pots in sandy loam soil (doubly sown with in each case one species of mono- or dicotyledonous weed plants per pot), covered with soil and cultivated in a greenhouse under controlled growth conditions. 2 to 3 weeks after sowing, the test plants were treated at the one-leaf stage. The compounds of the invention, formulated in the form of wettable powders (WP) or as emulsion concentrates (EC), were applied onto the green parts of the plants as aqueous suspension or emulsion with addition of 0.5% additive at a water application rate of 600 liters per hectare (converted). After the test plants had been kept in the greenhouse under optimum growth conditions for about 3 weeks, the activity of the preparations was rated visually in comparison to untreated controls. For example, 100% activity = the plants have died, 0% activity = like control plants. Tables B1 to B12, below, show the effects of selected compounds of the general formula (I) according to table 1 on various harmful plants and an application rate corresponding to 1280 g/ha or below obtained by the experimental procedure mentioned above. Table B1a: post-emergence activity at 1280g/ha against ABUTH in %

STEME [6] = assay: as above; format: in vivo, Stellaria media; settings: application rate 1280 g/ha; Table B6
Outline: as §1

LOLRI = assay: A. Herbicidal pre-emergence action on harmful plants (Tables A); format: in vivo, Lolium rigidum; settings: visual grading after ca. 3 weeks vs untreated controls, 100% = plants have died off, 0% = as control plants
Outline: as §2

MATIN = assay: as above; format: in vivo, Matricaria inodora; settings: application rate 1280 g/ha; visual grading after ca. 3 weeks vs untreated controls; 100% = plants have died off, 0% = as control plants
Outline: as §2

STEME [7] = assay: as above; format: in vivo, Stellaria media; settings: visual grading after ca. 3 weeks vs untreated controls, 100% = plants have died off, 0% = as control plants
Outline: as §2

POAAN [8] = assay: B. Herbicidal post-emergence action on harmful plants (Tables B); format: in vivo, Poa annua; settings: application rate 1280 g/ha; Table B7a
Outline: as §1

POAAN [9] = assay: A. Herbicidal pre-emergence action on harmful plants (Tables A); format: in vivo, Poa annua
Outline: as §2

DIGSA = assay: as above; format: in vivo, Digitaria sanguinalis
Outline: as §2

ZEAMX [10] = assay: D. Pre-emergence effects on crop plants (Tables D); format: in vivo, Zea mays; settings: crop plant
Source text: (§3) Seeds of mono- and dicotyledonous weed plants and crop plants were sown, in plastic or organic planting pots, in sandy loam and covered with soil. The compounds according to the invention, formulated in the form of wettable powders (WP) or as emulsifiable concentrates (EC), were applied to the surface of the covering soil as aqueous suspension or emulsion, with the addition of 0.5% of an additive, at an application rate of 6001 of water/ha (converted).
(§4) Following treatment, the pots were placed in a greenhouse and kept under optimum growth conditions for the test plants. The visual grading of the damage to the test plants was carried out after ca. 3 weeks in comparison to untreated controls (herbicidal effect in percent (%): 100% effect = plants have died off, 0% effect = as control plants).
(§5) Tables D1 to D5 below show the effects of various compounds of the general formula (I) according to Table 1 on various crop plants and an application rate corresponding to 320 g/ha or below obtained by the experimental procedure mentioned above in Biological Examples, Section C. Table D1a: pre-emergence activity at 320g/ha against ZEAMX in %

GLXMA [11] = assay: D. Pre-emergence effects on crop plants (Tables D); format: in vivo, Glycine max; settings: crop plant
Outline: (§6)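 Pre-emergence soil-surface treatment at 320 g/ha or lower, using wettable-powder or emulsifiable-concentrate formulations in water plus 0.5% additive, over freshly sown seeds in covered sandy loam. Damage was rated visually as percent versus untreated pots (100% = dead plants) after about 3 weeks of greenhouse growth.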

GLXMA [12] = assay: F. Post-emergence effects on crop plants (Tables F); format: in vivo, Glycine max; settings: application rate 320 g/ha, crop plant
Outline: (§7)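 Plants were grown in sandy loam in a greenhouse and sprayed post-emergence at the single-leaf stage, 2–3 weeks after sowing. Visual damage was scored after ca. 3 weeks against untreated controls (0% = as control, 100% = dead).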

KCHSC [13] = assay: C. Herbicidal pre-emergence action, weed and crop plants (Tables C); format: in vivo, Kochia scoparia; settings: application rate 320 g/ha; Table C1
Source text: (§8) Seeds of mono- and dicotyledonous weed plants and crop plants were sown, in plastic or organic planting pots, in sandy loam and covered with soil. The compounds according to the invention, formulated in the form of wettable powders (WP) or as emulsifiable concentrates (EC), were applied to the surface of the covering soil as aqueous suspension or emulsion, with the addition of 0.5% of an additive, at an application rate of 6001 of water/ha (converted). Following treatment, the pots were placed in a greenhouse and kept under optimum growth conditions for the test plants. The visual grading of the damage to the test plants was carried out after ca. 3 weeks in comparison to untreated controls (herbicidal effect in percent (%): 100% effect = plants have died off, 0% effect = as control plants). Tables C1 to C12 below show the effects of selected compounds of the general formula (I) according to table 1 on various harmful plants and an application rate corresponding to 320 g/ha or below obtained by the experimental procedure mentioned above. Table C1: pre-emergence activity at 320g/ha against KCHSC in %

TRZAS [14] = assay: F. Post-emergence effects on crop plants (Tables F); format: in vivo, Triticum aestivum; settings: crop plant
Outline: as §7

TRZAS [15] = assay: D. Pre-emergence effects on crop plants (Tables D); format: in vivo, Triticum aestivum; settings: crop plant
Source text: as §3, §4, §5

BRSNW [16] = assay: F. Post-emergence effects on crop plants (Tables F); format: in vivo, Brassica napus; settings: application rate 320 g/ha, crop plant
Outline: as §7

VIOTR = assay: C. Herbicidal pre-emergence action, weed and crop plants (Tables C); format: in vivo, Viola tricolor; settings: application rate 320 g/ha; Table C12a
Source text: as §8

ZEAMX [17] = assay: F. Post-emergence effects on crop plants (Tables F); format: in vivo, Zea mays; settings: crop plant
Outline: as §7

BRSNW [18] = assay: D. Pre-emergence effects on crop plants (Tables D); format: in vivo, Brassica napus; settings: crop plant
Outline: as §6

Cn1ncc(C(=O)N2CCCC2Cc2ccccc2F)c1COCC(F)(F)F (single isomer, unassigned) [Example I-122]
post-emergence activity against SETVI (SETVI [1]): 90%
post-emergence activity against AMARE (AMARE [2]): 90%
pre-emergence activity against ECHCG (ECHCG; application rate 80 g/ha): 90%
pre-emergence activity against ECHCG (ECHCG; application rate 320 g/ha): 100%
pre-emergence activity against ECHCG (ECHCG; application rate 1280 g/ha): 100%
pre-emergence activity against ABUTH (ABUTH): 100%
pre-emergence activity against AMARE (AMARE [3]): 100%
pre-emergence activity against SETVI (SETVI [4]; application rate 80 g/ha): 90%
pre-emergence activity against SETVI (SETVI [4]; application rate 320 g/ha): 90%
pre-emergence activity against SETVI (SETVI [4]; application rate 1280 g/ha): 100%
post-emergence activity against KCHSC (KCHSC [5]): 90%
post-emergence activity against STEME (STEME [6]): 90%
pre-emergence activity against LOLRI (LOLRI; application rate 320 g/ha): 100%
pre-emergence activity against LOLRI (LOLRI; application rate 1280 g/ha): 100%
pre-emergence activity against MATIN (MATIN): 100%
pre-emergence activity against STEME (STEME [7]; application rate 320 g/ha): 90%
pre-emergence activity against STEME (STEME [7]; application rate 1280 g/ha): 100%
post-emergence activity against POAAN (POAAN [8]): 90%
pre-emergence activity against POAAN (POAAN [9]; application rate 80 g/ha, Table A7c): 90%
pre-emergence activity against POAAN (POAAN [9]; application rate 320 g/ha, Table A7b): 100%
pre-emergence activity against POAAN (POAAN [9]; application rate 1280 g/ha, visual grading after ca. 3 weeks vs untreated controls, 100% = plants have died off, 0% = as control plants): 100%
pre-emergence activity against DIGSA (DIGSA; application rate 80 g/ha, Table A12c): 90%
pre-emergence activity against DIGSA (DIGSA; application rate 320 g/ha, Table A12b): 90%
pre-emergence activity against DIGSA (DIGSA; application rate 1280 g/ha, Table A12a): 100%

COCc1c(C(=O)N2CCCC2(C)Cc2ccccc2F)cnn1C (single isomer, unassigned) [Example I-066]
pre-emergence activity against ZEAMX (ZEAMX [10]; application rate 80 g/ha, Table D1b): 0%
pre-emergence activity against ZEAMX (ZEAMX [10]; application rate 320 g/ha, Table D1a): 0%
pre-emergence activity against GLXMA (GLXMA [11]; application rate 80 g/ha, Table D4b): 0%
pre-emergence activity against GLXMA (GLXMA [11]; application rate 320 g/ha, Table D4a): 0%
post-emergence activity against GLXMA in % (GLXMA [12]): 0%
pre-emergence activity against KCHSC (KCHSC [13]): 100%
post-emergence activity against TRZAS in % (TRZAS [14]; application rate 80 g/ha): 0%
post-emergence activity against TRZAS in % (TRZAS [14]; application rate 320 g/ha): 0%
pre-emergence activity against TRZAS (TRZAS [15]; application rate 80 g/ha, Table D2b): 0%
pre-emergence activity against TRZAS (TRZAS [15]; application rate 320 g/ha, Table D2a): 0%
post-emergence activity against BRSNW in % (BRSNW [16]): 0%
pre-emergence activity against VIOTR (VIOTR): 80%
post-emergence activity against ZEAMX in % (ZEAMX [17]; application rate 80 g/ha): 0%
post-emergence activity against ZEAMX in % (ZEAMX [17]; application rate 320 g/ha): 0%
pre-emergence activity against BRSNW in % (BRSNW [18]; application rate 80 g/ha): 0%
pre-emergence activity against BRSNW in % (BRSNW [18]; application rate 320 g/ha): 0%
